Values quoted from earlier work in US20040202615A1, “Melt-processed powder containing particles' repulsion agent, evaporation retardant, and means for benefit to plant cultivation and/or animal husbandry” (priority 2003, published 2004).

System: natural living organisms in water
Conditions: active ingredient level 0.04-1.0% in plastic pool and pit liners

In the case of `CCCCCCCCn1sccc1=O` [2-o-octyl-4-isothiazolin-3-one], the “slowing of degradation of plastic liners by natural living organisms” value is listed as “significantly slows down their degradation”.
